Experimental data as given in article PMC10629583, “Specific inhibition of an anticancer target, polo-like kinase 1, by allosterically dismantling its mechanism of substrate recognition” (Proceedings of the National Academy of Sciences of the …, 2023).

Experiments:
Experiment in all cases: PDSP off-target binding screen
Details in all cases: for inhibition at 10 µM: read-out: Primary screen AVE(%inhib)±SD; for Ki: read-out: Secondary screen Ki
M4 = target: T1, M4 (Homo sapiens, UniProt P08173)
T1 sequence (P08173 1-479): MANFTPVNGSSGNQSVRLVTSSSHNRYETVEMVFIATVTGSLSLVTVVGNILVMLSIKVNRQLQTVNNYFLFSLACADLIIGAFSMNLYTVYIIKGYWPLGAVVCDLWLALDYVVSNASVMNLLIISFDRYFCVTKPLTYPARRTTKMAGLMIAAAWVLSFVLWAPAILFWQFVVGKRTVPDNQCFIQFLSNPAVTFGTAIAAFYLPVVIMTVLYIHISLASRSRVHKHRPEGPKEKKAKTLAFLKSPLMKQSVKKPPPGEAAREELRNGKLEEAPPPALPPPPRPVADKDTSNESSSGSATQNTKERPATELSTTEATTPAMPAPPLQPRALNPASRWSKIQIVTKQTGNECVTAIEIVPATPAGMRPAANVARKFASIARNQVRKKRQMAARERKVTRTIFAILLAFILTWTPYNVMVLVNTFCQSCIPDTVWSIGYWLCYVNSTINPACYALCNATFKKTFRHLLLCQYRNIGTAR
From the text: (§1) PDSP no. Compound Interactions (Ki, µM)
(§2) 60477 Allopole-A None observed.
(§3) trigger a secondary screen at that receptor.

Beta2 = Beta2 (Homo sapiens, UniProt P07550)
Sequence of Beta2 (P07550 whole entry): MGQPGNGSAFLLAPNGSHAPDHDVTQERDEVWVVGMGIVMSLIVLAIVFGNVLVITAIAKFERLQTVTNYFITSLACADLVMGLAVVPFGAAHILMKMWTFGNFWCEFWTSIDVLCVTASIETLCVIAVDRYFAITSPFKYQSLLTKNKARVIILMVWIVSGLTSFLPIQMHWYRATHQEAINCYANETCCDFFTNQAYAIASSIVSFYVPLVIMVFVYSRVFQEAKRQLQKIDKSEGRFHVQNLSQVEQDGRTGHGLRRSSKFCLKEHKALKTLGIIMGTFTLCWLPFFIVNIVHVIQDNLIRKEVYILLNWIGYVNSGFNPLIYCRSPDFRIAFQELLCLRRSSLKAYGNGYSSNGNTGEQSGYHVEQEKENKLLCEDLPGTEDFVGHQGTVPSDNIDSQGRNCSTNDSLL
From the text: as §1, §2, §3

Beta1 = Beta1 (Homo sapiens, UniProt P08588)
Sequence of Beta1 (P08588 whole entry): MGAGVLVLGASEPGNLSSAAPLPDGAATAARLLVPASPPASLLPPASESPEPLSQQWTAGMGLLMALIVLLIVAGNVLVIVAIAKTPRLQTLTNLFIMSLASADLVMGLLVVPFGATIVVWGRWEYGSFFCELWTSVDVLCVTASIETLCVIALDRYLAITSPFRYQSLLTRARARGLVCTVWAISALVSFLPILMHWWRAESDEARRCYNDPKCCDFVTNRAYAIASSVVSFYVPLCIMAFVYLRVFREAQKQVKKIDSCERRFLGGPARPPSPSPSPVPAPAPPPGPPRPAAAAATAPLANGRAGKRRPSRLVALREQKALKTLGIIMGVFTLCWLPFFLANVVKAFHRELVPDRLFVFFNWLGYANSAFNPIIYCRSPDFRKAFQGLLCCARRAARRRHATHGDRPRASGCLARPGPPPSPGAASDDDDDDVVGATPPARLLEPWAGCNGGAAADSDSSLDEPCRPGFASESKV
From the text: as §1, §2, §3

Sigma 1 = Sigma 1 (Homo sapiens, UniProt Q99720)
Sequence of Sigma 1 (Q99720 whole entry): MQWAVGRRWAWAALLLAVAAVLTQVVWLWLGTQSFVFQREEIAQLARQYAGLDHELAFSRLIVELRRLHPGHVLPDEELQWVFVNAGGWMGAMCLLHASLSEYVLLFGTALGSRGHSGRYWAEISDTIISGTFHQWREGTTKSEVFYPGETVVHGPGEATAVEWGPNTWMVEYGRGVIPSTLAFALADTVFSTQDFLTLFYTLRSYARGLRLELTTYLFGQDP
From the text: as §1, §2, §3

5-HT1A = target: T2, 5-HT1A (Homo sapiens, UniProt P08908)
T2 construct: NIMH Psychoactive Drug Screening Program (UNC)
T2 sequence (P08908 1-422): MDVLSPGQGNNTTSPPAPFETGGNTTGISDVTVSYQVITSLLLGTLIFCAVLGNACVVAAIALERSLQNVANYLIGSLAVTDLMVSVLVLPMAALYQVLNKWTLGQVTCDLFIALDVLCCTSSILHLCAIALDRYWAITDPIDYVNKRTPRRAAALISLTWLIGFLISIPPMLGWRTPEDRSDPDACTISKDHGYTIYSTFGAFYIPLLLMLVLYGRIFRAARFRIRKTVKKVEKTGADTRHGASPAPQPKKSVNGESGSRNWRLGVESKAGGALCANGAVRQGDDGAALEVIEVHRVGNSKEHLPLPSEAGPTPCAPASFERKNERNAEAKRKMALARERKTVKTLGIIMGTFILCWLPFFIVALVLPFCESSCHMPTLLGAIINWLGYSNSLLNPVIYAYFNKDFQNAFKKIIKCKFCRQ
From the text: as §1, §2, §3

Alpha1D = target: T3, Alpha1D (Homo sapiens, UniProt P25100)
T3 sequence (P25100 1-572): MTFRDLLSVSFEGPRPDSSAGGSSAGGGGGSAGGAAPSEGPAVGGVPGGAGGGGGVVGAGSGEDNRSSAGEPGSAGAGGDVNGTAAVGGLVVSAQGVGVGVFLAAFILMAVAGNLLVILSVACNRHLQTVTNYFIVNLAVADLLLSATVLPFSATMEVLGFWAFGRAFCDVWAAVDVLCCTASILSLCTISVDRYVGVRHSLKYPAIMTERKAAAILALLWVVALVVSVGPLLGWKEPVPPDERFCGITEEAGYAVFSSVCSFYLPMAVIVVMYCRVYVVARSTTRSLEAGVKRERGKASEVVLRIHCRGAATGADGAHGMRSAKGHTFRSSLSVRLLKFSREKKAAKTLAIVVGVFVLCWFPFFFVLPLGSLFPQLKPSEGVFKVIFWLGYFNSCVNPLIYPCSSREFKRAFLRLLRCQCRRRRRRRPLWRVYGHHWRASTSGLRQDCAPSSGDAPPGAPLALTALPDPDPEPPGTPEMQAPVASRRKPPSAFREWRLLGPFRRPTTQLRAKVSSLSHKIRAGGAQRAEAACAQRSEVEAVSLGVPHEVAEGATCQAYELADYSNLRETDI
From the text: as §1, §2, §3

H1 = H1 (Homo sapiens, UniProt P35367)
Sequence of H1 (P35367 whole entry): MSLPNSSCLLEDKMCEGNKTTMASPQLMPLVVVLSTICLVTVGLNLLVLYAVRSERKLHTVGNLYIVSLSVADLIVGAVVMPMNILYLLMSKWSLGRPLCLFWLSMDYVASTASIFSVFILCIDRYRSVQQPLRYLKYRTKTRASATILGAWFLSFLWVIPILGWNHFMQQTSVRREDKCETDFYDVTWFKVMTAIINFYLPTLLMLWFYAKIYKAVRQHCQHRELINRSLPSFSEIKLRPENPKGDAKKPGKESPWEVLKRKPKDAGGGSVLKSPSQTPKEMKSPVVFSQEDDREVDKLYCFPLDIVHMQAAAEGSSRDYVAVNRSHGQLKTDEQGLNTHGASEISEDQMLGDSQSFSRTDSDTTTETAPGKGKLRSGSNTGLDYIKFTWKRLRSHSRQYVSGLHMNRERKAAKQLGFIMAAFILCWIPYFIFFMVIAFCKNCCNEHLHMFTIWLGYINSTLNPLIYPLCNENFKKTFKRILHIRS
From the text: as §1, §2, §3

Sigma 2 = Sigma 2 (Homo sapiens, UniProt Q5BJF2)
Sequence of Sigma 2 (Q5BJF2 whole entry): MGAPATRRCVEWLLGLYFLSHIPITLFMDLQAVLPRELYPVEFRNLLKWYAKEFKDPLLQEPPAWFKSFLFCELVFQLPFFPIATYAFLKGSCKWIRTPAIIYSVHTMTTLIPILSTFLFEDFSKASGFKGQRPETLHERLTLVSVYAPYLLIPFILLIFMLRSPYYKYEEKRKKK
From the text: as §1, §2, §3

H2 = H2 (Homo sapiens, UniProt P25021)
Sequence of H2 (P25021 whole entry): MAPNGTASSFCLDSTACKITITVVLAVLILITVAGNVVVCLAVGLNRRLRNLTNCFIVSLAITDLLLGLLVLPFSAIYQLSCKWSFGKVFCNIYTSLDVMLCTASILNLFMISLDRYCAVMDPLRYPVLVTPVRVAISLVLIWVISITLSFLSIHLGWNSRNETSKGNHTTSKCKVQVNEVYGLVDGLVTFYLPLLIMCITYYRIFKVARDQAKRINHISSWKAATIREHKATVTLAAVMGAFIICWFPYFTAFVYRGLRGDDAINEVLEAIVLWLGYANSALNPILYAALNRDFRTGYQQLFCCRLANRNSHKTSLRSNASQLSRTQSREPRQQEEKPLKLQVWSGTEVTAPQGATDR
From the text: as §1, §2, §3

D4 = target: T4, D4 (Homo sapiens, UniProt P21917)
T4 sequence (P21917 1-419): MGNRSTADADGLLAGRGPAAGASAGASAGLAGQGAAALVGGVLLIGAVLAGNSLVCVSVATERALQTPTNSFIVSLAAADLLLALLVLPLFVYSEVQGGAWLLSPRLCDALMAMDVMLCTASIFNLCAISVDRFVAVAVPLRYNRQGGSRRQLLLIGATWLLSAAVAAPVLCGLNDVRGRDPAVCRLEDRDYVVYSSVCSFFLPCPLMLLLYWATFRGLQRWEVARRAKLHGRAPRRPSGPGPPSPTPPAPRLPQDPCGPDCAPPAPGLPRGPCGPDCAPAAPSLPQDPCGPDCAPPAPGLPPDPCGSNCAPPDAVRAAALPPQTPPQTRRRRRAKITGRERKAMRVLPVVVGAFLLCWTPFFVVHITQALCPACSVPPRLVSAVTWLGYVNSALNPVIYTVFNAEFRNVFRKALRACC
From the text: as §1, §2, §3

Compound | inhibition at 10 µM (M4) [%] | Ki (M4) [µM] | inhibition at 10 µM (Beta2) [%] | Ki (Beta2) [µM] | inhibition at 10 µM (Beta1) [%] | Ki (Beta1) [µM] | inhibition at 10 µM (Sigma 1) [%] | Ki (Sigma 1) [µM] | inhibition at 10 µM (5-HT1A) [%] | Ki (5-HT1A) [µM] | inhibition at 10 µM (Alpha1D) [%] | Ki (Alpha1D) [µM] | inhibition at 10 µM (H1) [%] | Ki (H1) [µM] | inhibition at 10 µM (Sigma 2) [%] | Ki (Sigma 2) [µM] | inhibition at 10 µM (H2) [%] | Ki (H2) [µM] | inhibition at 10 µM (D4) [%] | Ki (D4) [µM]
O=c1c2sc(Cl)cc2n2c(=S)[nH]nc2n1CC1CC1 [Allopole-A] | -8.8 ± 4.8 | > 10 | -2.1 ± 19.7 | > 10 | -6.2 ± 19.4 | > 10 | 2 ± 21.4 | > 10 | -20 ± 27.4 | > 10 | -9.9 ± 23.4 | > 10 | 11.5 ± 2.8 | > 10 | 40.6 ± 9.5 | > 10 | -27.4 ± 17.1 | > 10 | -24.3 ± 4.4 | > 10
Cn1cnc([N+](=O)[O-])c1Sc1nnc2n(CC3CC3)c(=O)c3sc(Cl)cc3n12 [Allopole] | -8.7 ± 9.5 | > 10 | 0.1 ± 10.6 | > 10 | 67.3 ± 49.1 | > 10 | 41.8 ± 11.9 | > 10 | -12.8 ± 19.7 | > 10 | -15.1 ± 19.8 | > 10 | 35.8 ± 11.9 | > 10 | 40.7 ± 5.8 | > 10 | -16.4 ± 21.5 | > 10 | 12.6 ± 4.9 | > 10
